The assay addresses 60S ribosomal protein L19-A (Saccharomyces cerevisiae (strain ATCC 204508 / S288c), UniProt P0CX82). Kind of assay: RPL19A GFP fusion protein, TOR pathway, Saccharomyces cerevisiae, dose response (AID 2740).

A word on the pEC50: it is the negative decadic logarithm of the EC50, by convention in mol/L. High values mean a small EC50, low ones a large EC50.

pEC50: −log10 of the molar value.

Chain of 60S ribosomal protein L19-A (P0CX82 whole entry, the tested form may be a part): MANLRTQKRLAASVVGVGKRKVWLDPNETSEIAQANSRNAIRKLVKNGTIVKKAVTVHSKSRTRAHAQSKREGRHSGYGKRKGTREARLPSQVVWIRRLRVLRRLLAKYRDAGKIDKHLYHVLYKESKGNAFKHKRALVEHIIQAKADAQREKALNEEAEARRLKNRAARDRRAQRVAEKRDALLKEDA

With `CS(=O)(=O)c1nc(-c2cccs2)cc(C(F)(F)F)n1` [MLS000044645], the pEC50 was < 4.48.

Take `O=C1NC(=S)NC(=O)C1=Cc1ccc2c(c1)CCN2CCCCl` [5-[[1-(3-chloropropyl)-2,3-dihydroindol-5-yl]methylidene]-2-sulfanylidene-1,3-diazinane-4,6-dione]: the pEC50 is < 4.48.

For the origin of these results see BindingDB's records for doi:10.7270/Q2JQ0ZGP (Nmmlsc, 2010).
